Source: patent US4415574A, “Soluble N2 substituted derivatives of 2,4-diamino 5-benzyl pyrimidine, process for their preparation and medicaments containing them” (S. A. Panmedica, priority 1981, dated 1983)

Experiments:
Type in all cases: cell-based
COLI [1] = assay: Inhibiting minimum concentration (I.M.C.), activity relative to trimethoprime, MULLER HINTON COLI MEDIUM 4; conditions: for % activity with respect to the base: ratio of I.M.C. to trimethoprime; for % activity to the base corrected by molecular weight: ratio to trimethoprime
Protocol: (§1) The antibacterial activity of the derivatives according to the invention were tested in vitro by determining the inhibiting minimum concentrations (I.M.C.) on different germs.

COLI [2] = assay: Inhibiting minimum concentration (I.M.C.), activity relative to trimethoprime, OXOIDE COLI MEDIUM 4; conditions: for % activity with respect to the base: ratio of I.M.C. to trimethoprime; for % activity with respect to the base corrected by molecular weight: ratio to trimethoprime
Protocol: as §1

BACIL PUMILUS = assay: Inhibiting minimum concentration (I.M.C.), activity relative to trimethoprime, MULLER HINTON BACIL PUMILUS MEDIUM; conditions: for % activity with respect to the base: ratio of I.M.C. to trimethoprime; for % activity with respect to the base corrected by molecular weight: ratio to trimethoprime
Protocol: as §1

CCOc1cc(C(Nc2ncc(Cc3cc(OC)c(OC)c(OC)c3)c(N)n2)S(=O)(=O)O)ccc1O (centres unmarked) [Example 24b, N2 (3-Ethoxy 4-Hydroxy) Phenyl Methane Sulfonic Acid of 5-(3,4,5-Trimethoxy Benzyl) 2,4-Diamino Pyrimidine]
% activity with respect to the base (COLI [1]): 43.9% | % activity to the base corrected by molecular weight (COLI [1]): 84% | % activity with respect to the base (COLI [2]): 48.7% | % activity with respect to the base corrected by molecular weight (COLI [2]): 93% | % activity with respect to the base (BACIL PUMILUS): 42.2% | % activity with respect to the base corrected by molecular weight (BACIL PUMILUS): 79%

COc1cc(Cc2cnc(NC(c3ccccc3O)S(=O)(=O)O)nc2N)cc(OC)c1OC (centres unmarked) [Example 25f, N2 (2-HYDROXY) PHENYL METHANE SULFONIC ACID OF 5-(3,4,5-TRIMETHOXY BENZYL) 2,4-DIAMINO PYRIMIDINE]
% activity with respect to the base (COLI [1]): 55.4% | % activity to the base corrected by molecular weight (COLI [1]): 120% | % activity with respect to the base (COLI [2]): 38.3% | % activity with respect to the base corrected by molecular weight (COLI [2]): 84% | % activity with respect to the base (BACIL PUMILUS): 73.1% | % activity with respect to the base corrected by molecular weight (BACIL PUMILUS): 159%

COc1cc(Cc2cnc(NC(c3ccccc3Cl)S(=O)(=O)O)nc2N)cc(OC)c1OC (centres unmarked) [Example 9, N2 (2-Chloro Phenyl) Methane Sulfonic Acid of 2,4-Diamino 5-(3,4,5-Trimethoxy Benzyl) Pyrimidine]
% activity with respect to the base (COLI [1]): 13.3% | % activity to the base corrected by molecular weight (COLI [1]): 23% | % activity with respect to the base (COLI [2]): 14.7% | % activity with respect to the base corrected by molecular weight (COLI [2]): 26% | % activity with respect to the base (BACIL PUMILUS): 14.1% | % activity with respect to the base corrected by molecular weight (BACIL PUMILUS): 25%

COc1cc(Cc2cnc(NC(c3cccc([N+](=O)[O-])c3)S(=O)(=O)O)nc2N)cc(OC)c1OC (centres unmarked) [Example 13, N2 (3-Nitro Phenyl) Methane Sulfonic Acid of 2,4-Diamino 5-(3,4,5-Trimethoxy Benzyl) Pyrimidine]
% activity with respect to the base (COLI [1]): 17.2% | % activity to the base corrected by molecular weight (COLI [1]): 31% | % activity with respect to the base (COLI [2]): 32.5% | % activity with respect to the base corrected by molecular weight (COLI [2]): 59% | % activity with respect to the base (BACIL PUMILUS): 23.2% | % activity with respect to the base corrected by molecular weight (BACIL PUMILUS): 42%

COc1cc(Cc2cnc(NC(c3ccccc3O)S(=O)(=O)O)nc2N)cc(OC)c1OC (centres unmarked) [Example 25d, N2 (2-HYDROXY) PHENYL METHANE SULFONIC ACID OF 5-(3,4,5-TRIMETHOXY BENZYL) 2,4-DIAMINO PYRIMIDINE]
% activity with respect to the base (COLI [1]): 45.4% | % activity to the base corrected by molecular weight (COLI [1]): 85% | % activity with respect to the base (COLI [2]): 28.3% | % activity with respect to the base corrected by molecular weight (COLI [2]): 53% | % activity with respect to the base (BACIL PUMILUS): 55.5% | % activity with respect to the base corrected by molecular weight (BACIL PUMILUS): 104%

CCC(C)C(C)C(Nc1ncc(Cc2cc(OC)c(OC)c(OC)c2)c(N)n1)S(=O)(=O)O (centres unmarked) [Example 6, N2 (2,3-Dimethyl) Pentane Sulfonic Acid of 2,4-Diamino 5-(3,4,5-Trimethoxy Benzyl) Pyrimidine]
% activity with respect to the base (COLI [1]): 15.75% | % activity to the base corrected by molecular weight (COLI [1]): 27% | % activity with respect to the base (COLI [2]): 18.8% | % activity with respect to the base corrected by molecular weight (COLI [2]): 32% | % activity with respect to the base (BACIL PUMILUS): 16.6% | % activity with respect to the base corrected by molecular weight (BACIL PUMILUS): 28%

COc1cc(Cc2cnc(NC(c3ccccc3[N+](=O)[O-])S(=O)(=O)O)nc2N)cc(OC)c1OC (centres unmarked) [Example 14, N2 (2-Nitro Phenyl) Methane Sulfonic Acid of 2,4-Diamino 5-(3,4,5-Trimethoxy Benzyl) Pyrimidine]
% activity with respect to the base (COLI [1]): 13.9% | % activity to the base corrected by molecular weight (COLI [1]): 25% | % activity with respect to the base (COLI [2]): 10.6% | % activity with respect to the base corrected by molecular weight (COLI [2]): 19% | % activity with respect to the base (BACIL PUMILUS): 11.0% | % activity with respect to the base corrected by molecular weight (BACIL PUMILUS): 20%

COc1cc(Cc2cnc(NC(c3ccc([N+](=O)[O-])cc3)S(=O)(=O)O)nc2N)cc(OC)c1OC (centres unmarked) [Example 12, N2 (4-Nitro Phenyl) Methane Sulfonic Acid of 2,4-Diamino 5-(3,4,5-Trimethoxy Benzyl) Pyrimidine]
% activity with respect to the base (COLI [1]): 18.1% | % activity to the base corrected by molecular weight (COLI [1]): 32% | % activity with respect to the base (COLI [2]): 11.7% | % activity with respect to the base corrected by molecular weight (COLI [2]): 21% | % activity with respect to the base (BACIL PUMILUS): 11.9% | % activity with respect to the base corrected by molecular weight (BACIL PUMILUS): 22%

COc1cc(Cc2cnc(NC(C(C)(C)C)S(=O)(=O)O)nc2N)cc(OC)c1OC (centres unmarked) [Example 5, N2 (2,2-Dimethyl) Propane Sulfonic Acid of 2,4-Diamino 5-(3,4,5-Trimethoxy Benzyl) Pyrimidine]
% activity with respect to the base (COLI [1]): 23.3% | % activity to the base corrected by molecular weight (COLI [1]): 37% | % activity with respect to the base (COLI [2]): 18.4% | % activity with respect to the base corrected by molecular weight (COLI [2]): 29% | % activity with respect to the base (BACIL PUMILUS): 19.4% | % activity with respect to the base corrected by molecular weight (BACIL PUMILUS): 30%

COc1cccc(C(Nc2ncc(Cc3cc(OC)c(OC)c(OC)c3)c(N)n2)S(=O)(=O)O)c1 (centres unmarked) [Example 16, N2 (3-Methoxy Phenyl) Methane Sulfonic Acid 2,4-Diamino 5-(3,4,5-Trimethoxy Benzyl) Pyrimidine]
% activity with respect to the base (COLI [1]): 16.8% | % activity to the base corrected by molecular weight (COLI [1]): 29% | % activity with respect to the base (COLI [2]): 13.2% | % activity with respect to the base corrected by molecular weight (COLI [2]): 23% | % activity with respect to the base (BACIL PUMILUS): 10.7% | % activity with respect to the base corrected by molecular weight (BACIL PUMILUS): 19%

CCCC(Nc1ncc(Cc2cc(OC)c(OC)c(OC)c2)c(N)n1)S(=O)(=O)O (centres unmarked) [Example 3, N2 Butane Sulfonic Acid of 2,4-Diamino 5-(3,4,5-Trimethoxy Benzyl) Pyrimidine]
% activity with respect to the base (COLI [1]): 4.55% | % activity to the base corrected by molecular weight (COLI [1]): 10.8% | % activity with respect to the base (COLI [2]): 18.35% | % activity with respect to the base corrected by molecular weight (COLI [2]): 28% | % activity with respect to the base (BACIL PUMILUS): 2.9% | % activity with respect to the base corrected by molecular weight (BACIL PUMILUS): 6.8%

COc1cc(C(Nc2ncc(Cc3cc(OC)c(OC)c(OC)c3)c(N)n2)S(=O)(=O)O)ccc1O (centres unmarked) [Example 21, N2 (4-Hydroxy 3-Methoxy) Phenyl Methane Sulfonic Acid of 2,4-Diamino 5-(3,4,5-Trimethoxy Benzyl) Pyrimidine]
% activity with respect to the base (COLI [1]): 43.3% | % activity to the base corrected by molecular weight (COLI [1]): 79% | % activity with respect to the base (COLI [2]): 49.8% | % activity with respect to the base corrected by molecular weight (COLI [2]): 90% | % activity with respect to the base (BACIL PUMILUS): 34.6% | % activity with respect to the base corrected by molecular weight (BACIL PUMILUS): 63%

COc1cc(Cc2cnc(NC(c3ccc(Cl)cc3)S(=O)(=O)O)nc2N)cc(OC)c1OC (centres unmarked) [Example 11, N2 (4-Chloro Phenyl) Methane Sulfonic Acid of 2,4-Diamino 5-(3,4,5-Trimethoxy Benzyl) Pyrimidine]
% activity with respect to the base (COLI [1]): 17.6% | % activity to the base corrected by molecular weight (COLI [1]): 31% | % activity with respect to the base (COLI [2]): 25.6% | % activity with respect to the base corrected by molecular weight (COLI [2]): 45% | % activity with respect to the base (BACIL PUMILUS): 23% | % activity with respect to the base corrected by molecular weight (BACIL PUMILUS): 41%

COc1cc(Cc2cnc(NC(c3ccccc3O)S(=O)(=O)O)nc2N)cc(OC)c1OC (centres unmarked) [Example 25c, N2 (2-HYDROXY) PHENYL METHANE SULFONIC ACID OF 5-(3,4,5-TRIMETHOXY BENZYL) 2,4-DIAMINO PYRIMIDINE]
% activity with respect to the base (COLI [1]): 57% | % activity to the base corrected by molecular weight (COLI [1]): 116%
